Data as given in patent US20050192264A1, “Slow release steroid composition” (priority 2004, published 2005).
≈ marks a conversion by molar mass, not a printed value. Read-outs that look alike come from different tables or passages of the source.

Key:
[1] = Flow-through dissolution of TA samples in 20% methanol in water; assay type: physicochemical; conditions: solvent solution 20% methanol in water
Experimental: Samples were prepared by dispensing 10 mg of sample into 10 mL of a balanced salt solution comprising 1% Tween 80. The sample in solution was then subjected to vigorous shaking and a number of rapid expulsions through a 22 gauge needle. 2 mL of this suspension was then filtered through a […] Durapore membrane filter which retained essentially all of the particles. The filter is then rinsed with 2 mL water.
This method of sample preparation avoids the problem of particles formed of large agglomerations of crystals which appear to dissolve as large crystals and therefore bias results.
Dissolution was performed using a flow through system that pumps a degassed solvent solution of 20% methanol in water through the dissolution chamber at around 11 mL per minute. […] The combination of flow rate and solvent solution dissolves the TA crystals at a rate that enables a flow-through cell to record absorbance values in the acceptable range for virtually all of the 30 minute run time and for the experiment to be completed in a reasonable period. […]
Approximately 2 mg of sample was prepared on a filter as outlined above. […] The absorbance was recorded on a chart recorder with 2 absorbance units causing 100% pen deflection.
Dissolution studies were carried out for a period of 30 minutes with a flow rate of 11 mL per minute. Average absorbance values over 2 minute periods were calculated. […]

[2] = Equilibrium solubility of triamcinolone acetonide in various media (HPLC); assay type: physicochemical; conditions: thermodynamic from solid, read-out: Triamcinolone acetonide conc. (equilibrium solubility)
Text: An HPLC assay method was developed for TA. This was used to determine the equilibrium solubility for TA in various media. It was considered that a solution of acetonitrile may be advantageous for the maintenance of sink conditions, wherein a large surplus of solvent/absorbant/carrier capacity is maintained.

[3] = Saline saturated with TA (filter validation stock); assay type: physicochemical
Experimental: Solutions at 1% and 10% of saturation were prepared from a stock of saline saturated with TA (15 μg/mL). The solutions were filtered through a syringe filter and aliquots (200 μL) of the filtrate were collected. […] Consequently, an 800 μL prefiltration volume (see dissolution method above) was assumed sufficient to ensure that the filtrate concentration was representative of the dissolved TA concentration in the dissolution vessel.

[4] = cited from earlier work
[5] = test system: clinically significant macular edema; conditions: intravitreal injection of the usual dose (4 mg); cited from earlier work

Structure (SMILES): CC1(C)O[C@@H]2CC3C4CCC5=CC(=O)C=CC5(C)[C@@]4(F)C(O)CC3(C)C2(C(=O)CO)O1 (stereo partly shown) [triamcinolone acetonide, 9-fluoro-11,21-dihydroxy-16,17-[1-methylethylidinebis(oxy)]pregna-1,4-diene-3,20-dione]
- solubility of TA in the solvent solution relative to TA in water alone [1]: 2-3 times
- solubility thermodynamic ([2]; 5% Acetonide, aqueous with cosolvent or surfactant or cyclodextrin): 5.2 µg/mL (≈ 12 µM)
- solubility thermodynamic ([2]; 10% Acetonide, aqueous with cosolvent or surfactant or cyclodextrin): 9.1 µg/mL (≈ 20.9 µM)
- solubility thermodynamic ([2]; 30% Acetonide, aqueous with cosolvent or surfactant or cyclodextrin): 128 µg/mL (≈ 295 µM)
- solubility thermodynamic ([2]; distilled water, water): 8.8 µg/mL (≈ 20.3 µM)
- solubility thermodynamic ([2]; normal saline, saline or isotonic): 8.2 µg/mL (≈ 18.9 µM)
- concentration of saline saturated with TA [3]: 15 µg/mL
- persistence at measurable concentrations in the vitreous humour ([4]; patients who have not undergone vitrectomy, assuming five half-lives): 93 ± 28 days
- mean elimination half-life ([4]; single intravitreal injection, nonvitrectomized patients): 18.6 days
- time after which beneficial effects are diminished [5]: approximately three
